Values quoted from earlier work, collected in publication PMC6156206 (Molecular Imaging, 2018).

What was measured:
[1] = phase 1/1b safety profile analysis
[2] = test system: BRAF^V600E-mutant melanoma xenografts; details: oral, 30-100 mg/kg, twice daily, without any adverse effects
[3] = test system: P-gp/BCRP

| SMILES | Tolerable dose in patients [1] | Antitumor effect in xenografts [2] | Substrate for the drug efflux transporter system P-gp/BCRP [3] |
| --- | --- | --- | --- |
| COc1cc2ncnc(Oc3cccc(NC(=O)Nc4cc(C(C)(C)C(F)(F)F)on4)c3)c2cc1OC.Cl [CEP-32496, 1-(3-(6,7-dimethoxyquinazolin-4-yloxy)phenyl)-3-(5-(1,1,1-trifluoro-2-methylpropan-2-yl)isoxazol-3-yl)urea hydrochloride] | up to 350 mg/d | tumor stasis and regression | – |
| CNC(=O)c1cc(Oc2ccc(NC(=O)Nc3ccc(Cl)c(C(F)(F)F)c3)cc2)ccn1 [sorafenib] | – | – | substrate for the drug efflux transporter system P-gp/BCRP |
